# Strand notation (5' to 3'): a small letter for the sugar, then the base; units joined by * are phosphorothioate-linked, units joined directly phosphodiester-linked; [ ] holds rarer units or linkages, { } end groups; capitals alone tell only the bases. e = 2'-O-(2-methoxyethyl) (MOE); [5mC] = 5-methylcytosine; d = 2'-deoxy (DNA)
# Test system: human Factor 7 mRNA
# Experiment: Antisense inhibition of human Factor 7 mRNA in HepB3 cells, 50 nM antisense oligonucleotide, lipofectin
# Format: cell-based
# Settings: Table 1, 50 nM, lipofectin, approximately 24 hours, relative to untreated control cells
# Experimental: Antisense oligonucleotides targeted to a Factor 7 nucleic acid were tested for their effects on Factor 7 mRNA in vitro. Cultured HepB3 cells at a density of 4,000 cells per well were transfected using lipofectin reagent with 50 nM antisense oligonucleotide. After a treatment period of approximately 24 hours, RNA was isolated from the cells and Factor 7 mRNA levels were measured by real-time RT-PCR, as described herein. Factor 7 mRNA levels were adjusted according to total RNA content as measured by RIBOGREEN®. Results are presented as percent inhibition of Factor 7, relative to untreated control cells.
# (§1) Antisense oligonucleotides targeted to a Factor 7 nucleic acid were designed and tested for their effects on Factor 7 mRNA in vitro. Certain antisense oligonucleotides from Table 3 were also retested for their effects on Factor 7 mRNA in vitro. Cultured HepB3 cells at a density of 4,000 cells per well were transfected using lipofectin reagent with 50 nM antisense oligonucleotide. After a treatment period of approximately 24 hours, RNA was isolated from the cells and Factor 7 mRNA levels were measured by real-time RT-PCR, as described herein. Human Factor 7 primer probe set RTS 2927 was used to measure mRNA levels. Factor 7 mRNA levels were adjusted according to total RNA content as measured by RIBOGREEN®. Results are presented as percent inhibition of Factor 7, relative to untreated control.
# as §1, with “tested” for “tested for their effects on Factor 7 mRNA in vitro. Certain antisense oligonucleotides from Table 3 were also retested”
# These gapmers were designed by creating gapmers shifted slightly upstream and downstream (i.e. “microwalk”) of the original gapmers from Table 7. Gapmers were also created with various motifs, e.g. 5-10-5 MOE, 3-14-3 MOE, and 2-13-5 MOE. These gapmers were tested in vitro. Cultured HepB3 cells at a density of 4,000 cells per well were transfected using lipofectin reagent with 50 nM antisense oligonucleotide. After a treatment period of approximately 24 hours, RNA was isolated from the cells and Factor 7 mRNA levels were measured by real-time RT-PCR. Factor 7 mRNA levels were adjusted according to total RNA content, as measured by RIBOGREEN®. Results are presented as percent inhibition of Factor 7, relative to untreated control cells.
row,Substance,% Inhibition
1,407927 (antisense eA*eG*eG*eT*eA*dA*dG*dG*dA*dG*dG*d[5mC]*dT*d[5mC]*dA*eG*e[5mC]*eT*eG*eG) [compound 407927],55%
2,407946 (antisense eT*e[5mC]*e[5mC]*eA*eA*dA*dA*dA*dT*dG*dA*dA*dT*d[5mC]*dA*eT*eG*eG*eG*e[5mC]) [compound 407946],5%
3,407612 (antisense eA*eG*eA*eT*e[5mC]*dA*dG*d[5mC]*dT*dG*dG*dT*d[5mC]*dA*dT*e[5mC]*e[5mC]*eT*eT*eG) [compound 407612],82%
4,407657 (antisense eG*eG*eG*eA*e[5mC]*dT*d[5mC]*dA*dG*d[5mC]*dA*dA*dG*dA*dG*eT*eG*e[5mC]*eA*eG) [compound 407657],26%
5,407660 (antisense eG*e[5mC]*eT*e[5mC]*eT*dG*dA*dA*dG*dT*dA*dG*dA*dT*dG*eA*eT*eG*e[5mC]*e[5mC]) [compound 407660],16%
6,407604 (antisense e[5mC]*eA*e[5mC]*eA*e[5mC]*dT*dG*dG*dT*d[5mC]*d[5mC]*d[5mC]*d[5mC]*dA*dT*e[5mC]*eA*e[5mC]*eT*eG) [compound 407604],34%
7,407634 (antisense eG*eT*eG*eA*e[5mC]*dT*dG*d[5mC]*dT*dG*d[5mC]*dA*dG*dG*d[5mC]*eA*eG*eT*e[5mC]*e[5mC]) [compound 407634],24%
8,407956 (antisense eA*eA*e[5mC]*eT*eT*dG*d[5mC]*dA*dT*dT*dT*dA*dG*dT*dG*eA*eT*eG*e[5mC]*eG) [compound 407956],19%
9,407595 (antisense eT*e[5mC]*e[5mC]*eT*eG*dA*dG*dG*d[5mC]*d[5mC]*dT*dT*dA*dG*d[5mC]*eG*eA*e[5mC]*e[5mC]*e[5mC]) [compound 407595],71%

# Same assay, conditions: Table 6, 50 nM, lipofectin, approximately 24 hours
row,Substance,% Inhibition
1,422276 (antisense eG*eG*dT*dT*dA*d[5mC]*dT*dG*dA*dG*d[5mC]*dG*d[5mC]*dG*dG*eA*eA*eG*eA*eA) [compound 422276],66%

# Same assay, conditions: gapmers targeted to nucleobases 4868 to 4899 of SEQ ID NO: 1, Table 8
row,Substance,% Inhibition of human Factor 7 mRNA levels
1,422218 (antisense e[5mC]*eG*eA*dG*dT*dT*d[5mC]*dT*dG*d[5mC]*dA*dG*dG*dA*dG*d[5mC]*dG*eG*e[5mC]*e[5mC]) [compound 422218],70%
2,422141 (antisense eA*eG*eT*eT*e[5mC]*dT*dG*d[5mC]*dA*dG*dG*dA*dG*d[5mC]*dG*eG*e[5mC]*e[5mC]*eT*eA) [compound 422141],64%
3,422148 (antisense eG*eG*eA*eG*e[5mC]*d[5mC]*d[5mC]*dG*dA*dG*dT*dT*d[5mC]*dT*dG*e[5mC]*eA*eG*eG*eA) [compound 422148],57%

# Same assay, conditions: lipofectin, 50 nM antisense oligonucleotide, approximately 24 hours, Factor 7 mRNA by real-time RT-PCR (RTS 2927), relative to untreated control
row,Substance,% Inhibition
1,416456 (antisense e[5mC]*eT*eG*e[5mC]*eG*d[5mC]*d[5mC]*dA*d[5mC]*d[5mC]*d[5mC]*dG*d[5mC]*d[5mC]*dG*eG*e[5mC]*eT*e[5mC]*eT) [compound 416456],58%
2,416486 (antisense eA*eT*eT*eG*eA*d[5mC]*dA*dA*dG*dG*dG*d[5mC]*dT*dG*dT*eG*eG*e[5mC]*eA*eG) [compound 416486],12%
3,416483 (antisense eT*eG*eT*eG*eA*dG*dG*dG*dT*dT*d[5mC]*dA*dT*dT*dT*e[5mC]*eA*eG*eT*eG) [compound 416483],22%
4,416463 (antisense eT*eG*e[5mC]*eT*eG*d[5mC]*dA*dG*dG*d[5mC]*dA*dG*dT*d[5mC]*d[5mC]*eT*eG*eG*eG*eT) [compound 416463],39%
5,416533 (antisense eG*e[5mC]*eA*eT*eT*d[5mC]*dT*dG*dG*dA*d[5mC]*d[5mC]*d[5mC]*dA*dG*eA*eT*eG*eA*e[5mC]) [compound 416533],41%
6,416518 (antisense eG*eG*eG*eT*eG*dA*d[5mC]*d[5mC]*dA*d[5mC]*dA*d[5mC]*dA*dT*dT*eT*e[5mC]*e[5mC]*eT*eG) [compound 416518],55%
7,416490 (antisense eA*e[5mC]*eT*e[5mC]*eA*dG*d[5mC]*dA*dA*dG*dA*dG*dT*dG*d[5mC]*eA*eG*e[5mC]*eT*eT) [compound 416490],33%
8,416469 (antisense eG*e[5mC]*eA*eG*e[5mC]*d[5mC]*dA*d[5mC]*dT*d[5mC]*dG*dA*dT*dG*dT*eA*e[5mC]*eT*eG*eG) [compound 416469],55%
9,416475 (antisense e[5mC]*eT*e[5mC]*eA*eG*d[5mC]*dT*dG*dG*dG*d[5mC]*dT*dG*dT*d[5mC]*eT*eG*e[5mC]*e[5mC]*eT) [compound 416475],70%
10,416464 (antisense eA*eA*e[5mC]*eA*eT*dG*dT*dA*d[5mC]*dT*d[5mC]*d[5mC]*dG*dT*dG*eA*eT*eA*eT*eT) [compound 416464],53%

# Same assay, conditions: oligonucleotides targeted to nucleobases 11830 to 11869 of SEQ ID NO: 1 (Table 9)
row,Substance,% Inhibition (human Factor 7 mRNA levels)
1,422169 (antisense e[5mC]*eT*eG*dA*dG*dG*dA*dG*dA*d[5mC]*dA*dA*dT*dG*dG*dT*d[5mC]*eA*eG*eG) [compound 422169],56%
2,422094 (antisense e[5mC]*eA*eA*eT*eG*dG*dT*d[5mC]*dA*dG*dG*dG*d[5mC]*dT*dG*eG*eT*eT*eT*eT) [compound 422094],48%
3,422159 (antisense eA*eA*eT*dG*dG*dT*d[5mC]*dA*dG*dG*dG*d[5mC]*dT*dG*dG*dT*dT*eT*eT*eG) [compound 422159],45%
4,422155 (antisense eG*eT*e[5mC]*dA*dG*dG*dG*d[5mC]*dT*dG*dG*dT*dT*dT*dT*dG*dG*eA*eG*eG) [compound 422155],34%
5,422157 (antisense eT*eG*eG*dT*d[5mC]*dA*dG*dG*dG*d[5mC]*dT*dG*dG*dT*dT*dT*dT*eG*eG*eA) [compound 422157],49%
6,422248 (antisense eG*eG*d[5mC]*dT*dG*dA*dG*dG*dA*dG*dA*d[5mC]*dA*dA*dT*eG*eG*eT*e[5mC]*eA) [compound 422248],60%
7,422251 (antisense eG*e[5mC]*dT*dG*dG*d[5mC]*dT*dG*dA*dG*dG*dA*dG*dA*d[5mC]*eA*eA*eT*eG*eG) [compound 422251],36%

# Same assay, conditions: oligonucleotides targeted to nucleobases 13760 to 13789 of SEQ ID NO: 1 (Table 10)
row,Substance,% Inhibition (human Factor 7 mRNA levels)
1,416456 (antisense e[5mC]*eT*eG*e[5mC]*eG*d[5mC]*d[5mC]*dA*d[5mC]*d[5mC]*d[5mC]*dG*d[5mC]*d[5mC]*dG*eG*e[5mC]*eT*e[5mC]*eT) [compound 416456],50%
2,422115 (antisense eG*e[5mC]*eG*e[5mC]*e[5mC]*dA*d[5mC]*d[5mC]*d[5mC]*dG*d[5mC]*d[5mC]*dG*dG*d[5mC]*eT*e[5mC]*eT*eG*e[5mC]) [compound 422115],66%
3,422182 (antisense e[5mC]*eG*e[5mC]*d[5mC]*dA*d[5mC]*d[5mC]*d[5mC]*dG*d[5mC]*d[5mC]*dG*dG*d[5mC]*dT*d[5mC]*dT*eG*e[5mC]*eT) [compound 422182],11%

# Same assay, conditions: oligonucleotides targeted to nucleobases 14707 to 14732 of SEQ ID NO: 1 (Table 11)
row,Substance,% Inhibition (human Factor 7 mRNA levels)
1,422202 (antisense eA*eG*e[5mC]*d[5mC]*dT*dG*dA*dG*dG*d[5mC]*d[5mC]*dA*dG*d[5mC]*dA*dG*dA*eT*e[5mC]*eA) [compound 422202],49%
2,422201 (antisense eG*e[5mC]*e[5mC]*dT*dG*dA*dG*dG*d[5mC]*d[5mC]*dA*dG*d[5mC]*dA*dG*dA*dT*e[5mC]*eA*e[5mC]) [compound 422201],71%

# Same assay, conditions: oligonucleotides targeted to nucleobases 15098 to 15122 of SEQ ID NO: 1 (Table 12)
row,Substance,% Inhibition (human Factor 7 mRNA levels)
1,422209 (antisense eA*eG*e[5mC]*dA*d[5mC]*dA*d[5mC]*dA*dT*dG*dG*dA*dG*dT*d[5mC]*dA*dG*e[5mC]*eA*eT) [compound 422209],47%
2,422212 (antisense eG*eA*e[5mC]*dA*dG*d[5mC]*dA*d[5mC]*dA*d[5mC]*dA*dT*dG*dG*dA*dG*dT*e[5mC]*eA*eG) [compound 422212],30%
3,422287 (antisense e[5mC]*eA*dG*d[5mC]*dA*d[5mC]*dA*d[5mC]*dA*dT*dG*dG*dA*dG*dT*e[5mC]*eA*eG*e[5mC]*eA) [compound 422287],41%
